The results in this text go back to ChEMBL document CHEMBL6153059, “Discovery of a Potent Triazole-Based Reversible Targeted Covalent Inhibitor of Cruzipain” (ACS Med Chem Lett, 2025).

The target of data set [1] is Cruzipain (Trypanosoma cruzi, UniProt P25779). The data set is described as follows: Inhibition of Trypanosoma cruzi cruzain using Z-FR-AMC as substrate preincubated for 10 mins followed by substrate addition and measured every 5 secs for 10 mins by fluorimetry.
A short description of data set [2]: Dissociation constant, pKa of the compound for carboxyl group by potentiometric titration analysis. Type of data set: physicochemical.
The target of data set [3] is cathepsin L (Homo sapiens, UniProt P07711). The data set is described as follows: Inhibition of recombinant human cathepsin L expressed in FreeStyle 293-F cells using Z-FR-AMC as substrate at 100 uM preincubated for 10 mins followed by substrate addition and measured for 20 mins by fluorimetry. The conditions noted are these: probe Z-FR-AMC, time 30 min.
Chain of cathepsin L (P07711 whole entry): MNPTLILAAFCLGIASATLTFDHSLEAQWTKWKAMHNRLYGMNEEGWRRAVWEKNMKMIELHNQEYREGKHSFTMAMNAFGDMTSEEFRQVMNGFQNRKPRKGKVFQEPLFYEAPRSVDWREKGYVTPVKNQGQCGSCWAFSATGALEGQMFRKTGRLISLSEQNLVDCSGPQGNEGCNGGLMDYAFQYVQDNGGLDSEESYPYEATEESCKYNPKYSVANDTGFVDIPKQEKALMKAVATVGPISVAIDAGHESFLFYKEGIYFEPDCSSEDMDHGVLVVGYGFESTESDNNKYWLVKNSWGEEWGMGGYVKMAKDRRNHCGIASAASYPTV
Data set [4] relates to Trypanosoma cruzi. The data set can be described thus: Antitrypanosomal activity against Trypanosoma cruzi Tulahuen trypomastigotes expressing Escherichia coli beta-galactosidase infected in African green monkey Vero cells incubated for 72 hrs by ONPG dye based microplate reader analysis. In kind it is functional, organism-based.
The target of data set [5] is Cruzipain (Trypanosoma cruzi) (UniProt P25779). The data set can be described thus: Inhibition of Trypanosoma cruzi cruzain at 100 uM using Z-FR-AMC as substrate preincubated for 10 mins followed by substrate addition and measured every 5 secs for 10 mins by fluorimetry. The conditions noted are these: time 20.0 min.
Chain of Cruzipain (Trypanosoma cruzi) (P25779 123-467 limits assumed): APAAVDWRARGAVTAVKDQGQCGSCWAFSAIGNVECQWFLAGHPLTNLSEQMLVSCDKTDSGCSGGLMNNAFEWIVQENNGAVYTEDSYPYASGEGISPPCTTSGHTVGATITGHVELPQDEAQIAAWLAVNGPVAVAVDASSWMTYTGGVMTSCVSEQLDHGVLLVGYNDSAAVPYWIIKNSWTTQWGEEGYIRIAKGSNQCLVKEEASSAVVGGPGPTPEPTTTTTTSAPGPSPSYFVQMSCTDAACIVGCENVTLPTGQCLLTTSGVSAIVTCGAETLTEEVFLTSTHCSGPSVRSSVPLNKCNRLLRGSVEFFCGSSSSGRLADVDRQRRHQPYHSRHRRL
The subject of data set [6] is Trypanosoma cruzi. The data set can be described thus: Antitrypanosomal activity against Trypanosoma cruzi Tulahuen trypomastigotes expressing Escherichia coli beta-galactosidase infected in African green monkey Vero cells at 10 uM incubated for 72 hrs by ONPG dye based microplate reader analysis. Type of data set: functional.
Data set [7] deals with Trypanosoma cruzi. The data set can be described thus: Antitrypanosomal activity against Trypanosoma cruzi Tulahuen trypomastigotes expressing Escherichia coli beta-galactosidase infected in African green monkey Vero cells at 50 uM incubated for 72 hrs by ONPG dye based microplate reader analysis. Type of data set: functional.
The target of data set [8] is Cruzipain (Trypanosoma cruzi) (UniProt P25779). The data set is described as follows: Inhibition of Trypanosoma cruzi cruzain at 100 uM using Z-FR-AMC as substrate measured every 5 secs for 10 mins by fluorimetry.
The nature of data set [9]: Cytotoxicity against African green monkey Vero cells assessed as cell viability at 50 uM incubated for 96 hrs by resazurin dye based fluorescence analysis relative to control. In kind it is toxicity. The conditions noted are these: chlorocebus sabaeus, read-out: Activity.
Data set [10] can be described thus: Dissociation constant, pKa of the compound for secondary ammonium by potentiometric titration analysis. Type of data set: physicochemical.
In data set [11] the target is Cruzipain (Trypanosoma cruzi) (UniProt P25779). The data set is described as follows: Covalent reversible inhibition of Trypanosoma cruzi cruzain using Z-FR-AMC as substrate at 0.1XIC50 and measured at 10 mins post-dilution by jump dilution assay.
Data set [12] shares this target. The data set can be described thus: Covalent reversible inhibition of Trypanosoma cruzi cruzain assessed as recovery of enzyme activity using Z-FR-AMC as substrate at 0.1XIC50 and measured for 2 hrs by jump dilution assay.

Structures are written as SMILES. The source made the active and inactive calls. The rule behind the calls is not given here.

Chain of Cruzipain (P25779 whole entry): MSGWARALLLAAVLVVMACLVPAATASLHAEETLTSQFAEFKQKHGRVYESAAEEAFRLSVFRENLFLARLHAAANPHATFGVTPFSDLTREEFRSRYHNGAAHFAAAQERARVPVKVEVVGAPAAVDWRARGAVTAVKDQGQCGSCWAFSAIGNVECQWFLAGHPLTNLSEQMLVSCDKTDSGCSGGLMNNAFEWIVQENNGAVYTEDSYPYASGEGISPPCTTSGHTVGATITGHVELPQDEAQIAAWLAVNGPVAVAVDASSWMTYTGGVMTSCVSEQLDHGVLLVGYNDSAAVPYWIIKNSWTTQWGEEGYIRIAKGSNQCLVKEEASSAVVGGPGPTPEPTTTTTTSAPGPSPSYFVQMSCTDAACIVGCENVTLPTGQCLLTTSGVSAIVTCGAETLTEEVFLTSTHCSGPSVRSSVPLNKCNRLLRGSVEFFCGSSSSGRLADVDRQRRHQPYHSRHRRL

In turn, `O=C(O)[C@H](CSC(c1ccccc1)(c1ccccc1)c1ccccc1)n1cc(C(NCc2ccc3c(c2)OCO3)C2CCCCC2)nn1` (stereo partly drawn) displayed an IC50 in data set [1] of 6 µM. Further, the pKa in data set [2] stood at 3. Moreover, the inhibition at 20 min, 100 µM in [3] was 100%.
With `NCCCC[C@@H](C=O)n1cc(C(NCc2ccc3c(c2)OCO3)C2CCCCC2)nn1` (stereo partly drawn), the IC50 in data set [4] was determined as 3.2 µM; in data set [1] it was 3.3 µM.
`COc1ccc(COC(=O)[C@H](CS)n2cc(C(NCc3ccc4c(c3)OCO4)C3CCCCC3)nn2)cc1` (stereo partly drawn) showed an inhibition in data set [5] of 28%.
In the case of `O=C(O)[C@H](CS)n1cc(C(NCc2ccc3c(c2)OCO3)C2CCCCC2)nn1` (stereo partly drawn), the IC50 turned out to be 6.67 µM in data set [4] and 0.028 µM in data set [1]. In data set [6], this compound yielded an inhibition at 10 µM of 76%. In addition, the inhibition at 50 µM in data set [7] worked out at 98%. The inhibition is 100% in data set [5] and 13% in [8]. Besides, the viability at 96 h, 50 µM in data set [9] worked out at 80%. The pKa in data set [2] was determined as 4; in [10] it was 8.1. Also, in data set [3], the inhibition at 20 min, 100 µM is 0%. Besides, the inhibition result in data set [11] is “inactive”. In data set [12], the inhibition entry is “Active”.
As for `CCOC(=O)[C@H](CS)n1cc(C(NCc2ccc3c(c2)OCO3)C2CCCCC2)nn1` (stereo partly drawn), the inhibition in data set [5] worked out at 46%; in [8], 3%.
Regarding `CC(C)[C@H](CS)n1cc(C(NCc2ccc3c(c2)OCO3)C2CCCCC2)nn1` (stereo partly drawn), the inhibition in data set [5] was 43%; in data set [8], 6%.
Take `COC(=O)[C@H](CS)n1cc(C(NCc2ccc3c(c2)OCO3)C2CCCCC2)nn1` (stereo partly drawn): the inhibition in data set [5] stood at 53%; in data set [8], 6%.
For the compound `SC[C@@H](Cc1ccccc1)n1cc(C(NCc2ccc3c(c2)OCO3)C2CCCCC2)nn1` (stereo partly drawn), half-maximal inhibition in data set [1] (IC50) was put at 7 µM. The inhibition was 79% in [5] and 12% in data set [8]. Moreover, the inhibition at 20 min, 100 µM in data set [3] was found to be 0%.
